# EP2229935A1, “Peptide derivatives or pharmaceutically acceptable salts thereof, method for producing the same, use of said derivatives and pharmaceutical composition” (Nebolsin, Vladimir Evgenievich, priority 1997, dated 1999)
# Marks after values point to notes of the source that are not given here.
# Key:
# [1] = tested on: mongrel male mice; test: Passive cutaneous anaphylaxis reaction; format: in vivo; conditions: PCA, oral 3 days, 2 µg/kg
# Procedure: Experiments were carried out on mongrel male mice with initial body mass 22-24 g. Each group included 10 animals. Sensibilization of animals was accomplished by intradermal injection of 20-30 µl of the serum of mice obtained from preliminaryly immunized animals comprising reagent antibodies against chicken ovalbumin (OVA). […] In 48 hours after sensibilzation an anaphylaxis-provoking OVA dose (1 mg and 0,2 ml Evans blue in 0.2 ml normal saline) were intravenously injected to mice. Passive cutaneous anaphylaxis reaction intensity (PCA) was determined in 30 minutes by the size (area) of a blue spot on the internal skin surface in the site of reagent anibodies' administration. Spot size was measured in two mutually perpendicular directions and the result was expressed in mm^2.
# [2] = tested on: mongrel guinea-pigs; test: Food anaphylaxis (active anaphylactic shock) in OVA-sensitized guinea pigs; conditions: oral 3 days before provoking anaphylaxis, 1000 µg/kg
# [3] = tested on: Male guinea pigs; test: Antigen-induced bronchospasm in actively sensitized guinea pigs; format: in vivo; conditions: for Bronchospasm (percent of the maximum value): sensitized guinea pigs
# Procedure: Antiasthmatic effect of the test compounds was studied using an antigen-induced bronchospasm model in actively sensitized guinea pigs according to the Andersson method [Andersson P. Antigen induced bronchial anaphylaxis in actively sensitized guinea pig. Allergy (1980), Vol. 35, pp. 65-71].
# Male guinea pigs were sensitized with intramuscular injection of 0.5 ml suspension comprising 20 micrograms ovalbumin (OVA, manufactured by the Sigma company [grade III]) and 100 mg Al(OH)3 per one animal. Anaphylaxis-provoking dose 150-200 µg/kg OVA in 0.1 ml normal saline was intravenously (v. jugularis) injected on day 26 after sensibilization. Bronchospasm induction and measuring external respiration parameters were carried out according to the method described in Yu-Hong L., Barnes P., Rogers D. Inhibition of neurogenic plasma exudation and bronchoconstriction by a K+ channel activator, BRL 38227, in guinea pig airways in vivo. Europ. J. Pharmacol. (?), Vol. 239, pp.257-259]. Measurement of respiration parameters was performed using a transducer (Ugo Basel, model 7020), connected with a cannula and a recorder (Millichrome), recording breathing amplitude. […] Efficacy of compounds was determined by change in bronchospasm value.
# Inthal was used as a reference drug that was administered to animals at a dose 5 µg/kg according to the same dosage regimen as the test substances were administered. The control group of animals received equivalent amount of normal saline.
# Groups of animals: group 1 - control; group 2 - animals given Inthal; group 3 - animals given oral compound XLIV; group IV - animals given oral compound III; group 5 - animals given intratracheal compound III; group 6 - animals given compound XLIX, group 7 - animals given compound XXXI, group 8 - animals given compound XLVI; group 9 - animals given compound VI, group 10 - animals given compound XLVIII.
# [4] = tested on: P-450 and B5 cytochromes; test: Hepatic content of P-450 and B5 cytochromes (microsomal liver fraction); format: in vivo, guinea pigs; conditions: guinea pig liver microsomes; administered three times 72, 48 and 24 hours before
# Procedure: Change in hepatic monooxygenase system was studied on mongrel male guinea pigs with initial mass 250-300 g; each group included 12 animals. […]. The content of P-450 and […] cytochromes was measured according to the published method [Omura T., Scato R. The monooxide binding pigment of liver microsomes. 11. Solubilization, purification and properties. J. Chem. (1964), Vol. 239, pp. 2379-2385] in microsomal liver fraction, isolated using differential centrifugation method [Ahokas J., Pelkonen O., Karkin N. Charcaterisation of BP-hydroxylase of Trout-liver. Cancer Res. (1977), Vol. 37, pp. 3737-3743]. The priority method {Izotov M.V., Scherbakov V.M., Devichensky V.M. et al. The method of determining the content of P-450 cytochrome isoenzymes in liver microsomes. The inventor's certificate No 1,488,738. B.I. (1989), No 3.-6.06.09, ICI, 01. - No 33/15, No 33/48]. Microsomal protein content was determined using the modified Lowry method [Hartree E. Determination of protein: a modification of the Lowry method, that gives a linear photometric responces. Ann. Biochem. (1972), Vol. 48, pp. 422-427].
# [5] = tested on: [C^14]-arachidonic acid; test: Metabolism of [C^14]-arachidonic acid in pulmonary tissue homogenate of treated mice; format: in vivo, CBA male mice; conditions: CBA mice lung homogenate; 80 µg/kg for three days
# Procedure: Studies were carried out on CBA male mice fed a standard vivarium ration. […] Then animals were sacrified, their lungs were taken out, frozen in liquid nitrogen, homogenized in a glass homogenizer manufactured by the Wheaton company (U.S.A.) at +4°C in 10 volumes 0.05 M Tris-HCl buffer. […] Densitometry of the autoradiochromatograms obtained on the X-ray films X-Omat AR (Kodak, U.S.A.) and HS 11 (ORWO, Germany) were performed on the KS 3 densiscan (Kipp and Zonnen, Holland). Quantative analysis of individual eucosanoids was carried out using radiometry of the fractions obtained with high performance liquid chromatography (the Gilson company HPLC-system, France; the Du Pont company ZORBAX C8 column, U.S.A.) and with elution of spots on TLC-plates.
# [6] = tested on: hepatic P-450 cytochrome system; test: Hexenal sleep duration in mice; format: in vivo; conditions: CBF1 mice, oral 3 days, control 25.91 ± 1.57
# Method in brief: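 Male mice (several inbred/hybrid lines, 18-20 g, n=10) and mongrel male guinea pigs (250-300 g, n=24) given compounds orally in drinking water for three days at 50 and 500 µg/kg. Hexenal given 24 h after last dose ([…]); sleep duration recorded in minutes.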
# [7] = tested on: mongrel male mice; test: Delayed hypersensitivity induced by picryl chloride (TCB), local ointment; format: in vivo; conditions: mice, TCB
# Procedure: Effect study of the compounds on the delayed type hypersensitivity reaction induced in mice by 2.4.6-trichlorobenzol (TCB) was carried out according to the method of Tarayre et al. [Tarayre J.P., Barbara M., Aliaga M., Tisne-Versilles. Comparative actions of immunosuppressants, glucocorticoids and non-steroidal antiinflammatory drugs on various models of delayed hypersensitivity and on a non-immune inflammation in mice. Arzneim.-Forsch. Drug Res. (1990), Vol. 40, pip.1125-1131].
# Studies were conducted on mongrel male mice with initial body mass 30-35 g. Each group included 10 animals. Mice were sensitized with 0.1 ml 3% TCB solution in acetone application on a shaved abdominal area. In 7 days, the anaphylaxis-provoking TCB dose (0.025 ml of 3% solution) was applied on both surfaces of the right ear. In 30 minutes 0.05 ml of the test ointment were rubbed into the same surfaces. 24 hours after edema induction, mice were sacrified, ears were cut off and weighed. Allergic reaction intensity was assessed by change in weight in grams of the right ear (the test one) in relation to the left ear (the control ear).
# Allergic reaction inhibition expressed in percent was calculated according to the formula: 100-[(R-L(exper.))/(L):(R-L(control))/(L)x100](%) [formula] where R - the right ear weight, L - the left ear weight.
# The test compounds were applied on the ear in the form of 1% and 5% ointment the base of which were 10% methylcellulose solution and propylene glycol at 1:1 ratio.
# Groups of animals: • Group 1 - control, ointment base without active substance was applied on the ear of animals. • Group 2 - ointment base comprising 1% compound III was applied on the ear of animals. • Group 3 - ointment base comprising 1% compound XVII was applied on the ear of animals. • Group 4 - ointment base comprising 5% compound XLVIII was applied on the ear of animals.
# [8] = tested on: white mongrel male rats; test: Paw edema induced by Freund's complete adjuvant; format: in vivo; conditions: rats, FCA edema
# Procedure: Experiment was carried out on white mongrel male rats weghing 280-300 g. The model of paw edema induced by Freund's complete adjuvant (FCA), was reproduced according to the method of Ezamuzie and Umezurike [Ezamuzie Ch., Umezurike C.C. Effect of histamine H2-receptor antagonists on acute inflammatory of the rat paw oedema. J. Pharmacol. (1989), Vol. 41, pp. 261-265]. Paw volume measurement was done using a plethysmograph (Ugo Basile). Inhibition of inflammatory reaction expressed in percent, as calculated according to the formula: 100-[(R-L(exper.))/(L):(R-L(control))/(L)x100](%) [formula] where R - the right paw volume, L - the left paw volume.
# Each group included 10 animals.
# Group of animals: • Group 1 - control, animals were administered 0.5 ml of 1% starch solution. • Group 2 - animals were administered the compound XLVIII. • Group 3 - animals were administered the compound III. • Group 4 - animals were administered Naproxene.
# [9] = tested on: Strain Aichi of type A human influenza virus; format: in vivo; conditions: 50 µg/kg orally
# [10] = 50 µg/kg per os, 72, 48 and 18 hours prior to bronchospasm induction
# [11] = intragastral four times 50 µg/kg
structure (smiles),measurement,setting,value
"CCOC(=O)N1CCC(=C2c3ccc(Cl)cc3CCc3cccnc32)CC1 [Claritine, reference compound]",Percent of the reaction inhibition,[1],92.8%
same,"Reaction intensity, mm^2",[1],6.4 ± 2.3**^2 mm^2
same,Anaphylactic index,[2],2.03
same,Lethality in percent,[2],25.0%
same,Seizures in percent,[2],53.3%
"O=C([O-])c1cc(=O)c2c(OCC(O)COc3cccc4oc(C(=O)[O-])cc(=O)c34)cccc2o1.[Na+].[Na+] [Inthal, reference compound]",decrease in bronchospasm value,[3]; as compared with the control values,~50%
same,Bronchospasm (percent of the maximum value),"[3]; 5 mg/kg, 72, 48 and 18 hours prior to bronchospasm induction",40.7 3.4* percent of the maximum value
"CCC1(c2ccccc2)C(=O)NC(=O)NC1=O [Phenobarbital, reference compound]",B5 /P-450,[4],0.81
same,B5 cytochrome nM/mg of protein,[4],1.21 ± 0.10 nM/mg of protein
same,P-450B cytochromes nM/mg of protein,[4],0.76 ± 0.08 nM/mg of protein
same,P-450B/p-450L,[4],1.02
same,P-450 cytochrome nM/mg of protein,[4],1.50 ± 0.09 nM/mg of protein
same,"5-HETE+HHT, percent of AA conversion",[5],10.5 ± 0.26% of AA conversion
same,"6-keto-PGF1α, percent of AA conversion",[5],4.12 ± 0.12% of AA conversion
same,"12-, 15-HETE, percent of AA conversion",[5],27.1 ± 0.11% of AA conversion
same,"PGE2, percent of AA conversion",[5],3.82 ± 0.14% of AA conversion
same,"PGF2α, percent of AA conversion",[5],7.91 ± 0.08% of AA conversion
same,"Phospholipids, percent of AA conversion",[5],8.18 ± 0.21% of AA conversion
same,"TXB2, percent of AA conversion",[5],6.21 ± 0.18% of AA conversion
same,"Unmetabolized AA, percent of AA conversion",[5],14.5 ± 0.28% of AA conversion
"NC(CCC(=O)NCCc1c[nH]c2ccc(O)cc12)C(=O)O [compound XLIX, γ -L-glutamylserotonine]",Bronchospasm (percent of the maximum value),[3]; [10],33.0 9.4* percent of the maximum value
same,Hexenal sleep duration (minutes),[6]; 50 µg/kg,19.68 ± 2.04** minutes
"N[C@@H](CCC(=O)NCCc1c[nH]c2ccccc12)C(=O)O [compound XLVIII, γ -L-glutamyltryptamine]",Bronchospasm (percent of the maximum value),[3]; [10],22.0 3.4* percent of the maximum value
same,Reaction inhibition (%),[7]; 5% ointment,54%
same,weight increment,[7]; 5% ointment,3.7 ± 0.81 g
same,Weight of years (g) Right,"[7]; 5% ointment on right ear 30 minutes after challenge, 24 hours",17.9 ± 0.94 g
same,Weight of years (g) left,[7]; left (control) ear of animals given 5% ointment,14.2 ± 0.98 g
same,Inflammation inhibition (%),[8]; [11],19%
same,Volume increment,[8]; [11],0.65 ± 0.04
same,Volume of paws (conditional units) left,[8]; [11],1.30 ± 0.62 conditional units
same,Volume of paws (conditional units) Right,"[8]; intragastral four times 50 µg/kg 72, 48, 24 and 1 hour before FCA",1.95 ± 0.48 conditional units
same,Hexenal sleep duration (minutes),[6]; 50 µg/kg,16.27 ± 1.26** minutes
same,"MLT, days","[9]; series with control - 1 (5.76), 3 days before and 10 days following infection",9.58*^1 days
same,Survival rate in percent,[9]; series with control - 1 (16.7),34.5*^1%
same,Protection degree in percent,[9]; series with control - 1,17.8%
"CCCCCC(=O)NCCc1c[nH]c2ccccc12 [compound XXXI, N-HEXANOYLTRYPTAMINE]",Bronchospasm (percent of the maximum value),[3]; [10],39.3 7.6* percent of the maximum value
same,Hexenal sleep duration (minutes),[6]; 50 µg/kg,12.59 ± 0.88*** minutes
same,Hexenal sleep duration (minutes),[6]; 500 µg/kg,12.61 ± 1.45*** minutes
